Patent US7750181B2, “Antiproliferative agents” (EPX Research Limited, priority 2002, dated 2010)
Where “and” joins values, the source holds several entries; their conditions need not be identical. Equal values may be shown once.

Tests used:
[1] = test system: H460 non-small cell lung cancer human xenograft; assay: Antitumour test, H460 NSCLC human xenograft; format: in vivo, Nu nude mice; details: 500 mg/kg, i.p. days 0-4
Description: (§1) Fragments of the non-small cell lung cancer, H460, and DLD-1 colon cancer human xenografts were transplanted sub-cutaneously in both flanks of 14 female Nu nude mice from an inbred colony (B7K Universal, Hull, UK). Mice received CRM diet (SDS, WItham, UK) and water ad libitum. All experiments were carried out under a project license issued by the UK Home Office, and UKCCCR guidelines were followed throughout.
(§2) Therapy commenced once tumours had grown to a sufficient size to be measured accurately (minimum 4 mm×4 mm), which was 10 days for H460 and 19 days for DLD-1. 10 tumours grew sufficiently to use in 7 mice for both the test and untreated groups.
In the case of H460, the compound of Example 4 was administered at a concentration of 500 mg/kg body weight/day, intraperitoneally (i.p.), daily for 5 days (designated days 0-4). Animals were monitored daily for any toxicity effects, and tumours were measured, and weights recorded daily over the period of therapy and then on day 7 (untreated and test groups), and day 8 (test group). On day 7 for the untreated group, and day 8 for the test group, the largest tumour diameter was greater than the maximum permitted 17 mm, and subjects were then euthenised by UK Home Office Schedule 1 methods.
(§3) In both cases tumour volumes were assessed by caliper measurements of 2 perpendicular diameters and the volumes estimated using the following equation: Volumes−(a^2×b)/2, where a is the smaller, and b the larger diameter of the two. The effects of the therapy were determined from the difference in tumour volume-doubling time between treated and control groups, and the significance of any tumour growth delay determined using the Mann-Whitney U Test.

[2] = test system: DLD-1 colon cancer human xenograft; assay: Antitumour test, DLD-1 colon cancer human xenograft; format: in vivo, Nu nude mice; details: 500 mg/kg, i.p. days 0-4
Description: as §1, §2
[…], and assessing tumour growth compared to a control untreated group until the tumours have reached the maximum permitted size (day 16 control and tested group).
as §3

[3] = test system: MAC15 tumour, murine colon cancer; assay: Tumour growth inhibition, MAC15 tumour transplanted s.c.; format: in vivo, NMRI mice; details: intraperitoneal; for Tumour weight: individual animals
Description: (§4) Pure strain NMRI mice (age 6-8 weeks) from our inbred colony were used for transplanting MAC (murine colon cancer) tumours, M5076 reticulum cell sarcoma (ovarian) were transplanted in BDF1 mice purchased from Harlan, Bicester, U.K. Animals were fed on RM3E diet (Lillco-England) and water ad libitum.
The tumour is routinely passaged as an ascites. Approximately 2×10^5 cells were transplanted subcutaneously in saline in a volume of 0.2 ml. Mice were randomised in groups of 5-7 animals per group. Untreated or vehicle controls were included. Treatment commenced two days after transplant. Body weight was recorded daily. The effects of chemotherapy were assessed between 7-9 days after transplant. Mice were killed and the effects measured by the differences in tumour weights and expressed as: % T/C, i.e. […] Body weight changes were recorded in order to assess toxicity.

[4] = test system: MAC 13 tumour, murine colon cancer; assay: Tumour growth inhibition, MAC 13 tumour transplanted s.c.; format: in vivo, NMRI mice; details: 400 mg/kg body weight, intraperitoneal, days of treatment 1-5
Source text: as §4
(§5) Approximately 2×2 mm of MAC13 tumour fragments were transplanted subcutaneously in the inguinal region via a trocar while the M5076 was homogenised and 1×10^6 cells transplanted intramuscularly in the inguinal region. Tumour bearing mice were randomised in groups of 5-7 animals per group. Treatment commenced one day after transplant for M5076 and two days for MAC13. Untreated or vehicle controls were included. Daily weights were recorded. Chemotherapy effects were assessed on day 14 or thereabouts depending on the tumour sizes and condition of the animals. Mice were killed and the effects of the chemotherapy were assessed by the differences in tumour weights and expressed as: % T/C, i.e. inhibition=100-Treated weight/Control weight×100% Body weight changes were recorded in order to assess toxicity. MAC15A

[5] = test system: M5076 tumour, ovarian cancer (reticulum cell sarcoma); assay: Tumour growth inhibition, M5076 tumour transplanted i.m.; format: in vivo, BDF1 mice; details: 400 mg/kg body weight, intraperitoneal, days of treatment 1-11
Source text: as §4, §5

[6] = RTV2 = relative tumour volume doubling
[7] = 300 mg/kg body weight, days of treatment 1-5
[8] = 400 mg/kg body weight, days of treatment 1-5

`CN1C(=O)C(Cl)=C(Cl)C(=O)C1O` (centres unmarked) [Example 4, 3,4-dichloro-6-hydroxy-1-methyl-2,5-dioxo-1.6-dihydropyridine] was tested, and the “Maximum % weight loss” value [1] was 6.9%, the “Median time RTV2” value [1] was 6.4 days and the “Mean time to RTV2” value [1, 6] was 6.2 days. For the same molecule, the “Growth delay” value ([1]; versus untreated controls) was 3.9 days, the “Maximum % weight loss” value [2] was 4.3% and the “Median time RTV2” value [2] was 9.8 days. The “Mean time to RTV2” value [2, 6] was 9.9 days, the “Growth delay” value ([2]; versus untreated controls) was 6.7 days and the “% Tumour growth inhibition” value ([3]; 500 mg/kg body weight, day 1-5) was 86%. For the same molecule, the Mean tumour weight ([3]; 500 mg/kg body weight, day 1-5) was 0.056 g and the “Tumour weight” value ([3]; 500 mg/kg body weight, day 1-5, 500 mg/kg) was 0.076 g and 0.033 g and 0.0 g (3×) and 0.090 g and 0.060 g and 0.134 g and 0.114 g.
In the case of `CN(C=O)C(=O)/C(Cl)=C(/Cl)C(=O)O` [Example 3, (Z)-2,3-dichloro-4-[N-formyl-N-methylamino]-4-oxo-but-2-enoic acid], the “% Tumour growth inhibition” value [4] is reported as 92%, the Mean tumour weight [4] is reported as 0.031 g and the “Tumour weight” value ([4]; individual animals, 400 mg/kg) is reported as 0.053 g and 0.045 g and 0.030 g and 0.023 g and 0.0 g and 0.036 g. The “% Tumour growth inhibition” value [3, 7] was 68%, the Mean tumour weight [3, 7] was 0.195 g and the “% Tumour growth inhibition” value [3, 8] was 81%. The Mean tumour weight [3, 8] was 0.117 g, the “Tumour weight” value ([3]; 300 mg/kg body weight, days of treatment 1-5, 300 mg/kg) was 0.194 g and 0.201 g and 0.190 g and 0.176 g and 0.214 g and the “Tumour weight” value ([3]; 400 mg/kg body weight, days of treatment 1-5, 400 mg/kg) was 0.074 g and 0.094 g and 0.190 g and 0.096 g and 0.132 g. For the same molecule, the “% Tumour growth inhibition” value [5] was 97%, the Mean tumour weight [5] was 0.008 g and the “Tumour weight” value ([5]; individual animals, 400 mg/kg) was 0 g (5×) and 0.052 g.
